Laboratory results published in US11597704B2, “2,4-diaminoquinazoline derivatives and medical uses thereof” (Janssen Sciences Ireland Unlimited Company, priority 2018, dated 2023).

Legend:
[1] = target: T1, human TLR7 (Homo sapiens, UniProt Q9NYK1); experiment: TLR7 NFκB-luc cellular reporter assay in transiently transfected HEK293 cells; format: cell-based; conditions: lowest effective concentration; HEK293 cells transfected with wild type TLR7 and NFκB-luc reporter, 6 h incubation
T1 construct: expressed in transfected cells; host or cells: HEK293
T1 sequence (Q9NYK1 27-1049): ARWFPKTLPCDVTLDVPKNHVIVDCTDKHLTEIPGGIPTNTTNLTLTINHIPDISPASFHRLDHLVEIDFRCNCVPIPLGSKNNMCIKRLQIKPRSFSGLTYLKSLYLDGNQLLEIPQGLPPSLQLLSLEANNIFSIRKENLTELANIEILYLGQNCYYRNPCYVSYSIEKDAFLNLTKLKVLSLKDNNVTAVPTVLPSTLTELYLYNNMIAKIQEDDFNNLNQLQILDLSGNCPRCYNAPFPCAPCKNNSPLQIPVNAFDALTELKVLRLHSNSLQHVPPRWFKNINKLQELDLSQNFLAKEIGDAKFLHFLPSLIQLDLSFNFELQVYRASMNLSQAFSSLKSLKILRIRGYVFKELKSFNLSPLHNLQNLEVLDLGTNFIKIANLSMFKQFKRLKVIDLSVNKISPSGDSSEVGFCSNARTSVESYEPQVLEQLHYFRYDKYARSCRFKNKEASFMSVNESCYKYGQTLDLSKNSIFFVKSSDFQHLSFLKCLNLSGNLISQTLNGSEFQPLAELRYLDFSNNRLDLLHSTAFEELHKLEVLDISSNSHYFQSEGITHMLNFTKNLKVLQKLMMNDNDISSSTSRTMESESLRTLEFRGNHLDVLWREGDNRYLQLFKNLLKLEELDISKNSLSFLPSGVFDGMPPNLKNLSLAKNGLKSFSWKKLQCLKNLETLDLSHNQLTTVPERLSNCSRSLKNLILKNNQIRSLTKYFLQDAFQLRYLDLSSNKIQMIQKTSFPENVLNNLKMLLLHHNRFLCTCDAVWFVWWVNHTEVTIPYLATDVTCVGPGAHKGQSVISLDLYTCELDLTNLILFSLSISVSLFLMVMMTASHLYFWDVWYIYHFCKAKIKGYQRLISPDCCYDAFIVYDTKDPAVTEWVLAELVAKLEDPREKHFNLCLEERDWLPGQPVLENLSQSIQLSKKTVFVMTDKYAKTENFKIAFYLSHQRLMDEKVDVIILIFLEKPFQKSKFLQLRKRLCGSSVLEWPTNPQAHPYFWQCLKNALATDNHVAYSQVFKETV
Description: (§1) The ability of compounds to activate human TLR7 and/or TLR8 was assessed in a cellular reporter assay using HEK293 cells transiently transfected with a TLR7 or TLR8 expression vector and NFκB-luc reporter construct. In one instance, the TLR expression construct expresses the respective wild type sequence or a mutant sequence comprising a deletion in the second leucine-rich repeat of the TLR.
(§2) HEK293 cells were grown in culture medium (DMEM supplemented with 10% FCS and 2 mM Glutamine). For transfection of cells in 10 cm dishes, cells were detached with Trypsin-EDTA, transfected with a mix of CMV-TLR7 or TLR8 plasmid (750 ng), NFκB-luc plasmid (375 ng) and a transfection reagent and incubated 24 h at 37° C. in a humidified 5% C02 atmosphere. Transfected cells were then detached with Trypsin-EDTA, washed in PBS and re-suspended in medium to a density of 1.67×10^5 cells/mL. Thirty microliters of cells were then dispensed into each well in 384-well plates, where 10 μL of compound in 4% DMSO was already present. Following 6 h incubation at 37° C., 5% CO2, the luciferase activity was determined by adding 15 μl of STEADY LITE PLUS substrate (PERKIN ELMER) to each well and readout performed on a VIEWLUX ULTRAHTS microplate imager (PERKIN ELMER). Dose response curves were generated from measurements performed in quadruplicates. Lowest effective concentrations (LEC) values, defined as the concentration that induces an effect which is at least two-fold above the standard deviation of the assay, were determined for each compound.

[2] = target: T2, human TLR8 (Homo sapiens, UniProt Q9NR97); experiment: TLR8 NFκB-luc cellular reporter assay in transiently transfected HEK293 cells; format: cell-based; conditions: lowest effective concentration; HEK293 cells transfected with wild type TLR8 and NFκB-luc reporter, 6 h incubation
T2 construct: expressed in transfected cells; host or cells: HEK293
T2 sequence (Q9NR97 27-1041): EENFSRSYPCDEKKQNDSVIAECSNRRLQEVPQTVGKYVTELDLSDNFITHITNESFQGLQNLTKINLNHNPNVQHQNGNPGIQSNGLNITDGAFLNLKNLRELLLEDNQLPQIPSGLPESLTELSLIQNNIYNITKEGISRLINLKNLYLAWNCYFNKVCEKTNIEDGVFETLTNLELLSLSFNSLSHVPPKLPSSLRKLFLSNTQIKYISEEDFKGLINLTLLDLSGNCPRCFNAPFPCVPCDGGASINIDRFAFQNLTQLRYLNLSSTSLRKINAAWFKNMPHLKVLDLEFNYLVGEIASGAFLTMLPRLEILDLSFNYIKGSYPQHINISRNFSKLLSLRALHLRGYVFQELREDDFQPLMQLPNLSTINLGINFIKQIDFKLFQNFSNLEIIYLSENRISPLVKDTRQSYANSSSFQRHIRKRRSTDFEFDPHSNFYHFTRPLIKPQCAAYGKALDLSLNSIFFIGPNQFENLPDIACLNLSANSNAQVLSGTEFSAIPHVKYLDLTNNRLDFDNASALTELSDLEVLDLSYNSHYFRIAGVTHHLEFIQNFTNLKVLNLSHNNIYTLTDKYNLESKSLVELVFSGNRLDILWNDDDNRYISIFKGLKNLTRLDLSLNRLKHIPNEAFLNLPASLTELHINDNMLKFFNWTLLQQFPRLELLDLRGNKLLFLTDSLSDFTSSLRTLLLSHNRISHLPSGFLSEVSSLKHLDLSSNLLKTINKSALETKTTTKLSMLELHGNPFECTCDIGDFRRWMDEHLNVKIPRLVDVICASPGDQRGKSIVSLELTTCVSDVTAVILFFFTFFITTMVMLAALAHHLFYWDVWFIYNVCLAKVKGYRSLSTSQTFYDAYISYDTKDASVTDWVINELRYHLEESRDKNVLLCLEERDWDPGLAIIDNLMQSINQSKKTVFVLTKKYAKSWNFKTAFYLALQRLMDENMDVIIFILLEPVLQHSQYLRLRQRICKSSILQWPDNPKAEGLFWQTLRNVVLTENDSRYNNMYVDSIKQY
Description: as §1, §2

With `CCCC[C@H](CO)Nc1nc(N)nc2c(C)ccc(F)c12` [Compound 26, (R)-2-((2-amino-5-fluoro-8-methylquinazolin-4-yl)amino)hexan-1-ol] as the compound, how does the hTLR7-wt (LEC) [1] read?
Its hTLR7-wt (LEC) is greater than 100 µM.

And the hTLR8-wt (LEC) [2]?
Its hTLR8-wt (LEC) is 0.57 µM.
